Results from PubChem BioAssay AID330 (DTP/NCI, 2004).
“And” between values parts separate entries of the source, which are not always exact repeats. Equal entries are not always repeated. Toxic doses and inconclusive results are not listed. How the source made its calls: active means survival T/C of 150% or more; inactive means T/C below 125% in these data.

Test system: P388 leukemia ip, CD2F1 mice, survival T/C
Test: NCI In Vivo Anticancer Drug Screen. Data for tumor model P388 Leukemia (intraperitoneal) in CD2F1 (CDF1) mice
Settings: endpoint: median survival time, higher = longer survival
Outline: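 Mice carrying the transplanted tumor received test compound or vehicle. Survival was recorded in each group, and the value is the treated-group measurement divided by that of the vehicle-treated control group.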

[1] = dose: 60.0 mg/kg/injection, schedule: Q01DX005 (ip), vehicle: saline with Tween-80
[2] = dose: 120.0 mg/kg/injection, schedule: Q01DX005 (ip), vehicle: saline with Tween-80
[3] = dose: 50.0 mg/kg/injection, schedule: Q01DX005 (ip), vehicle: saline
[4] = dose: 100.0 mg/kg/injection, schedule: Q01DX005 (ip), vehicle: saline
[5] = dose: 200.0 mg/kg/injection, schedule: Q01DX005 (ip), vehicle: saline

Measured: T/C

CSC(=Cc1ccc2cc(Br)ccc2[n+]1C)SC
inactive: dose: 3.12 mg/kg/injection, schedule: Q01DX009 (ip), vehicle: Klucel (hydroxypropylcellulose) (HPC) 110 % of control | dose: 6.25 mg/kg/injection, schedule: Q01DX009 (ip), vehicle: Klucel (hydroxypropylcellulose) (HPC) 117 % of control and 121 % of control | dose: 25.0 mg/kg/injection, schedule: Q01DX009 (ip), vehicle: Klucel (hydroxypropylcellulose) (HPC) 107 % of control

Cc1ccc(S(=O)(=O)NNC(=O)c2nc3ccccc3c(=O)[nH]2)cc1
inactive: [1] 100 % of control | [2] 92 % of control

CC1C[C@@H]2OC(=O)C(C)[C@@H]2C(O)[C@@]2(C)C(=O)C=CC12 (some centres undefined)
inactive: dose: 1.38 mg/kg/injection, schedule: Q01DX005 (ip), vehicle: Klucel (hydroxypropylcellulose) (HPC) 104 % of control | dose: 2.75 mg/kg/injection, schedule: Q01DX005 (ip), vehicle: Klucel (hydroxypropylcellulose) (HPC) 104 % of control | dose: 5.5 mg/kg/injection, schedule: Q01DX005 (ip), vehicle: Klucel (hydroxypropylcellulose) (HPC) 112 % of control | dose: 11.0 mg/kg/injection, schedule: Q01DX005 (ip), vehicle: Klucel (hydroxypropylcellulose) (HPC) 111 % of control

CN(C)C1c2cc3ccccc3nc2-c2ccccc2C1(C)C (centres undefined)
inactive: dose: 12.5 mg/kg/injection, schedule: Q01DX005 (ip), vehicle: saline with Tween-80 95 % of control | dose: 25.0 mg/kg/injection, schedule: Q01DX005 (ip), vehicle: saline with Tween-80 95 % of control | dose: 50.0 mg/kg/injection, schedule: Q01DX005 (ip), vehicle: saline with Tween-80 100 % of control and 101 % of control | dose: 200.0 mg/kg/injection, schedule: Q01DX005 (ip), vehicle: saline with Tween-80 97 % of control

O=[N+]([O-])c1cccc(/C=N/NS(=O)(=O)c2ccc(F)cc2)c1O
inactive: [1] 95 % of control | [2] 93 % of control | dose: 240.0 mg/kg/injection, schedule: Q01DX005 (ip), vehicle: saline with Tween-80 106 % of control

CCCc1nnc2n1NC1(CS2)Nc2ccccc2N1
inactive: dose: 100.0 mg/kg/injection, schedule: Q01DX001 (ip), vehicle: saline with Tween-80 98 % of control | dose: 200.0 mg/kg/injection, schedule: Q01DX001 (ip), vehicle: saline with Tween-80 97 % of control | dose: 400.0 mg/kg/injection, schedule: Q01DX001 (ip), vehicle: saline with Tween-80 95 % of control

CSc1ccc(N2C(=O)CSC2=S)cc1Cl
inactive: dose: 50.0 mg/kg/injection, schedule: Q01DX009 (ip), vehicle: suspension in saline 101 % of control | dose: 100.0 mg/kg/injection, schedule: Q01DX009 (ip), vehicle: suspension in saline 99 % of control | dose: 200.0 mg/kg/injection, schedule: Q01DX009 (ip), vehicle: suspension in saline 104 % of control

CCCCCC[CH2][Sn]([Cl])([CH2]C)[O][Sn]([Cl])([CH2]C)[CH2]CCCCCC (centres undefined)
inactive: dose: 12.5 mg/kg/injection, schedule: Q01DX005 (ip), vehicle: saline 86 % of control | dose: 25.0 mg/kg/injection, schedule: Q01DX005 (ip), vehicle: saline 86 % of control | [3] 98 % of control and 90 % of control | [4] 110 % of control | [5] 98 % of control

Cc1ncc(COP(=O)(O)O)c(C2NC(C(=O)O)CS2)c1O (centres undefined)
inactive: [3] 115 % of control | dose: 60.0 mg/kg/injection, schedule: Q01DX005 (ip), vehicle: saline 92 % of control | [4] 107 % of control | dose: 120.0 mg/kg/injection, schedule: Q01DX005 (ip), vehicle: saline 94 % of control | [5] 113 % of control | dose: 240.0 mg/kg/injection, schedule: Q01DX005 (ip), vehicle: saline 91 % of control

O=C1CC2CC3C1C2n1c(=O)n(-c2ccccc2)c(=O)n13 (centres undefined)
inactive: dose: 100.0 mg/kg/injection, schedule: Q01DX001 (ip), vehicle: Klucel (hydroxypropylcellulose) (HPC) 107 % of control | dose: 200.0 mg/kg/injection, schedule: Q01DX001 (ip), vehicle: Klucel (hydroxypropylcellulose) (HPC) 101 % of control | dose: 400.0 mg/kg/injection, schedule: Q01DX001 (ip), vehicle: Klucel (hydroxypropylcellulose) (HPC) 96 % of control

CCOC(=O)C1OC1(C(F)(F)F)C(F)(F)F (centres undefined)
inactive: dose: 50.0 mg/kg/injection, schedule: Q01DX009 (ip), vehicle: saline with Tween-80 93 % of control | dose: 100.0 mg/kg/injection, schedule: Q01DX009 (ip), vehicle: saline with Tween-80 98 % of control | dose: 200.0 mg/kg/injection, schedule: Q01DX009 (ip), vehicle: saline with Tween-80 104 % of control
